Patent publication US11464840B2, “Universal non-classical MHC I vaccines: HLA-E-restricted antigenic peptides as universal vaccines to treat allergy, inflammation, autoimmune and infectious diseases, and cancers” (priority 2019, dated 2022)
Values joined by “and” are separate entries in the source; they are usually repeats but may differ in a detail not shown here. Equal values may be shown once. Ends that are not written are not given here.

What was measured:
Derlin-1 mRNA [1] = test: Derlin-1 mRNA knockdown by siRNA in T2 cells (qPCR, ΔΔCt); assay type: cell-based, human
Method: Table 1: Summary of Derlin-1 Knockdowns with Various siRNAs. Cells transfected in 12 well plate at 60%-80% confluency. one ul Viromer blue was used per 1 ml final volume. Cells were lysed via centrifugation and resuspended in TRI reagent at time points of either 6 h, 24 h, and 48 h. Lysates were split for both protein verification and qPCR. Knockdowns are estimated using the ΔΔCt method. […] Anti-Derlin-1 siRNA was designed using MITs website (sirna.wi.mit.edu) and siRNA design software (dharmacon.horizondiscovery.com/rnai/sirna). SiRNA were chosen based on the criteria that they would bind no more than 15 nucleotides on off-target mRNA and that they would be capable of knockdown for all four of the Derlin-1 mRNA isoforms. Additionally, siRNAs with 40-60% GC content, no more than 3 identical nucleotides in a row, and 3′ UU overhangs were used. The first siRNA (SEQ ID NO: 65, 5′-[…]-3′) was purchased from TriLink Biotechnologies and the second (SEQ ID NO: 66, 5′-[…]-3′) was purchased from Horizon Discovery. A third, modified siRNA with sequence 5′-SEQ ID NO: 67, O′me/G/O′me/[…]-3′ and DNA bases on the 1st and 8th nucleotide of the antisense strand was also designed and purchased from Horizontal Discovery. Scramble siRNAs were purchased from Horizontal Discovery (D-001810-10-05, ON-TARGET plus Non-targeting Pool). […]

Derlin-1 mRNA [2] = test: Derlin-1 mRNA knockdown by siRNA in monocyte-derived dendritic cells (qPCR, ΔΔCt); assay type: cell-based, human; conditions: MODC
Method: Table 1: Summary of Derlin-1 Knockdowns with Various siRNAs. Cells transfected in 12 well plate at 60%-80% confluency. one ul Viromer blue was used per 1 ml final volume. Cells were lysed via centrifugation and resuspended in TRI reagent at time points of either 6 h, 24 h, and 48 h. Lysates were split for both protein verification and qPCR. Knockdowns are estimated using the ΔΔCt method. […] Anti-Derlin-1 siRNA was designed using MITs website (sirna.wi.mit.edu) and siRNA design software (dharmacon.horizondiscovery.com/rnai/sirna). SiRNA were chosen based on the criteria that they would bind no more than 15 nucleotides on off-target mRNA and that they would be capable of knockdown for all four of the Derlin-1 mRNA isoforms. Additionally, siRNAs with 40-60% GC content, no more than 3 identical nucleotides in a row, and 3′ UU overhangs were used. The first siRNA (SEQ ID NO: 65, 5′-[…]-3′) was purchased from TriLink Biotechnologies and the second (SEQ ID NO: 66, 5′-[…]-3′) was purchased from Horizon Discovery. A third, modified siRNA with sequence 5′-SEQ ID NO: 67, O′me/G/O′me/[…]-3′ and DNA bases on the 1st and 8th nucleotide of the antisense strand was also designed and purchased from Horizontal Discovery. Scramble siRNAs were purchased from Horizontal Discovery (D-001810-10-05, ON-TARGET plus Non-targeting Pool).
Derlin-1 forms an integral part of the […] machinery required for transporting classical MHCI, e.g., HLA-A, -B, -C for proteasome degradation. […] In contrast, the protein band of Derlin-1 is entirely missing in Derlin-1 siRNA-treated MoDCs. Transfection of the primary cells were performed using PEI reagents (Viromer Blue vs. Viromer Red). The embodiment of the invention is three-fold. One aspect of the embodiment resides in treating APC with Derlin-1 RNA interference to prevent the generation of endogenous leader peptide as well as to cause dissociation of the HLA-E bound endogenous leader peptides so that Derlin-1-treated APC can be fully loaded with the HLA-E vaccines in the presence of the second costimulatory signal for immune induction.

HLA-E [3] = test: ELISA of renatured HLA-E binding to biotinylated leader peptide (C3N); set-up: species or system human
Method: FIG. 2. […] ELISA for the interaction of denatured HLA-E or covalent HLA-E-β2 microglobulin fusion protein with biotinylated HLA-A2 leader peptide. 10 μg of denatured recombinant HLAE-β2 microglobulin fusion protein, or denatured HLA-E incubated with biotinylated A2 leader peptide (SEQ ID NO: 50, […]) with or without 10 μg β2 microglobulin in 50 μl buffer A (0.5 mM-Tris pH at 6.6) at 18° C. for two days. The complexes were then added into anti-HLA E antibody coated plate (2 μg/ml) and incubated for 1 hour. After washing three times with 1% BSA PBS, HRP-Avidin (Biolegend #405103, 1:1000) was used to detect bound biotinylated leader peptide.
A conformation capture of canonical/non-canonical peptide (C3N) method to HLA-E is designed to test predicted HLA-E binding peptides. HLA-E canonical and nominal peptides predicted from the python algorithm of Igepredict program and any 9 to 12-mer made collinearly with an overlapping IgE sequence can be tested by a binding assay. […] The assay for intact re-natured conformation of HLA-E is dependent on gaining the binding signal using anti-HLA-E coated plate to capture re-natured HLA-E in the presence of beta 2 microglobulin and leader peptides.

HLA-E [4] = test: Upregulation of surface HLA-E by peptide nonamers in TAP-deficient T2 cells (FACS); assay type: cell-based, human; conditions: overnight incubation with peptide
Method: FIG. 3. Upregulation of surface HLA-E by peptide nonamers. Screening 9-mers of IgE epitope that were able to induce surface HLA-E expression in tap deficient T2 cells. T2 cells were cultured overnight in present of Panel A: A2 leader peptide-SEQ ID NO: 51, […]) or IgE epitope, B5 (SEQ ID NO: 52, […]), B6 (SEQ ID NO: 53, […]), B8 (SEQ ID NO: 54, […]) and B9 (SEQ ID NO: 55, […]), SP4 (SEQ ID NO: 56, […]), SP7 (SEQ ID NO: 57, […]) and SP11 (SEQ ID NO: 58, […]), and Panel B: IgE epitope of Mixture1 (SEQ ID NO: 59, […], […], […], […] and […]), Mixture2 (SEQ ID NO: 60: […], […], […], […] and […]), and Mixture 3 (SEQ ID NO: 61, […], SGYTPGTIN, […], […] and TINITWLED) at the concentration of 100 μg/ml. Cells were then collected and stained with PE conjugated HLA E followed by FACS flow cytometry analysis.
FIG. 12. Screening of IgE epitope 9-mer which can induce surface HLA-E expression in TAP-deficient T2 cells. Peptide E33 ([…], SEQ ID NO: 68) was predicted by Ige Predict program. T2 cells (2.5×10^5 cells/well) were cultured in the presence of E33 peptide or HLA-A2 leader peptide (10 μg/mL) in 96-well cell culture plate for overnight. Cell were collected and stained with PE anti-human HLA-E antibody followed by flow cytometric analysis (Panel A). […]

HLA-G = test: Surface HLA-G expression in PBMCs (FACS); assay type: cell-based, human; conditions: anti-CD3 coated plate, 4 days
Method: (§1) FIG. 6. Modulation of surface HLA-G and HLA-E expression in PBMCs in present of interferon-β. Fresh buffy coat was obtained from San Diego blood blank. PBMCs (peripheral blood mononuclear cells) were isolated by density gradient centrifugation with Histopague-1077 (Sigma). 5×10^5 of PBMCs were seeded in anti-CD3 (10 μg/ml) coated 96 wells-plate and treated with interferon-I3 for 4 days. Cells were collected and stained with fluorescence-conjugated antibody; Alexa Fluor 488-conjugated anti-human CD8a (Biolegend), Pacific Blue-conjugated human CD4, APC-Cy7-conjugated human CD19 and PE conjugated-HLA-E or PE-Cy 7 conjugated HLA-G (Panel A) or HLA-E (Panel B), followed by fixation with 2% paraformaldehyde. Phenotype and HLA-E or HLA-G (Biolegend) expression were performed by using a FACS, LRSII flow cytometry and the data were processed as describe above.

HLA-E [5] = test: Surface HLA-E expression in immature MoDC cells (FACS); assay type: cell-based, human; conditions: 100 nM SR11237, 100 nM Bexarotene or Interferon-β 1,000 U, 4 days
Method: FIG. 5. […] MoDCs were then collected and stained with fluorescence-conjugated antibody; APC-conjugated anti-CD83 (Biolegend) and PE-conjugated HLA-E (Biolegend) followed by fixation with 2% paraformaldehyde. Phenotype and HLA-E expression of MoDCs were performed by using a FACS, LRSII flow cytometry and the data were processed by using the Flowjo software.

HLA-E [6] = test: Surface HLA-E expression in PBMCs (FACS); assay type: cell-based, human; conditions: anti-CD3 coated plate, 4 days
Method: as §1

O′me/G/O′me/ACUUGGGAGGAAGAAAUUU-3′ (siRNA; 2'-O-methyl at sense 5' end, DNA at antisense positions 1 and 8, further chemistry not given here; listed as Homo sapiens) [Derlin siRNA #3]
Derlin-1 mRNA knockdown (KD) (Derlin-1 mRNA [1]; T2, 1 nM siRNA, 6 Hours): 59% | Derlin-1 mRNA knockdown (KD) (Derlin-1 mRNA [1]; T2, 2 nM siRNA, 6 Hours): 33% | Derlin-1 mRNA knockdown (KD) (Derlin-1 mRNA [1]; T2, 4 nM siRNA, 6 Hours): 28% | Derlin-1 mRNA knockdown (KD) (Derlin-1 mRNA [1]; T2, 8 nM siRNA, 6 Hours): 17% | Derlin-1 mRNA knockdown (KD) (Derlin-1 mRNA [2]; 5 nM siRNA, Day 1): 62% | Derlin-1 mRNA knockdown (KD) (Derlin-1 mRNA [2]; 5 nM siRNA, Day 2): 37% | Derlin-1 mRNA knockdown (KD) (Derlin-1 mRNA [2]; 10 nM siRNA, Day 1): 41% | Derlin-1 mRNA knockdown (KD) (Derlin-1 mRNA [2]; 10 nM siRNA, Day 2): 33%

NPRKVTAYL (also: biotin, place not given here; listed as Homo sapiens) [HLA-E leader peptide]
increment of HLA-E binding signal (HLA-E [3]; leader peptide 1.0 μg/ml versus 0.1 μg/ml): ~10 fold and ~15 fold | HLA-E binding signal (ELISA) (HLA-E [3]; leader peptide addition at 0.1 μg/ml): around 0.02 OD

5′-GAGGCCAGCAGACUAUUUAUU-3′ [Derlin siRNA #1]
Derlin-1 mRNA knockdown (KD) (Derlin-1 mRNA [1]; T2, 5 nM siRNA, Day 1): 32% | Derlin-1 mRNA knockdown (KD) (Derlin-1 mRNA [1]; T2, 5 nM siRNA, Day 2): 19% | Derlin-1 mRNA knockdown (KD) (Derlin-1 mRNA [1]; T2, 10 nM siRNA, Day 1): 50% | Derlin-1 mRNA knockdown (KD) (Derlin-1 mRNA [1]; T2, 10 nM siRNA, Day 2): 10% | Derlin-1 mRNA knockdown (KD) (Derlin-1 mRNA [1]; T2, 20 nM siRNA, Day 1): 25% | Derlin-1 mRNA knockdown (KD) (Derlin-1 mRNA [1]; T2, 20 nM siRNA, Day 2): 29% | Derlin-1 mRNA knockdown (KD) (Derlin-1 mRNA [2]; 25 nM siRNA, Day 1): 36% | Derlin-1 mRNA knockdown (KD) (Derlin-1 mRNA [2]; 50 nM siRNA, Day 1): 30%

VMAPRTLLL (VMAPRTLVL; listed as Homo sapiens) [A 2 leader peptide, reference compound]
surface expression of HLA-E in T2 cells (HLA-E [4]): enhanced surface expression

Interferon β
expression of HLA-G in CD4+ T cells (HLA-G): about two-fold | expression of HLA-G in CD8+ T cells (HLA-G): about two-fold | expression of HLA-G in CD19+ cells (HLA-G): increased | HLA-E expression of immature MoDC cells (HLA-E [5]): increasing intense expression | HLA-E expression in CD4+ T cells (HLA-E [6]): decrease | HLA-E expression in CD8+ T cells (HLA-E [6]): decrease | HLA-E expression in CD19+ cells (HLA-E [6]): increased

TMTLPATTL (listed as Homo sapiens) [E33]
surface expression of HLA-E in T2 cells (HLA-E [4]): stronger upregulation
